Legend:
Assay in all cases: relative viability (nuclei count vs DMSO), 5 days (fraction); higher = more cells survive
Dactolisib + Lapatinib = compound: Cn1c(=O)n(-c2ccc(C(C)(C)C#N)cc2)c2c3cc(-c4cnc5ccccc5c4)ccc3ncc21 [Dactolisib] + CS(=O)(=O)CCNCc1ccc(-c2ccc3ncnc(Nc4ccc(OCc5cccc(F)c5)c(Cl)c4)c3c2)o1 [Lapatinib] (partner 2 µM)
Outline: (§1)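 After 5 days of treatment, lung cancer cells in 1536-well plates were fixed and stained in a single step (final 0.05% Triton X-100, 1% formaldehyde, 1 ug/ml Hoechst) and their nuclei counted on 4× images. Treatment had been applied by pin tool the day after seeding as one drug alone or as a fixed anchor-drug dose with five library-drug doses (not always all listed) in √10 steps. Relative viability is the nuclei count of treated wells divided by that of vehicle wells, and values are medians of duplicate plates.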

AZ505 + Pictilisib = compound: C1CCC(CC1)N(CCNCCC2=C3C(=C(C=C2)O)NC(=O)CO3)C(=O)CCNCCC4=CC(=C(C=C4)Cl)Cl [AZ505] + CS(=O)(=O)N1CCN(Cc2cc3nc(-c4cccc5[nH]ncc45)nc(N4CCOCC4)c3s2)CC1 [Pictilisib] (partner 1 µM)
Outline: as §1

AZ505 + Lapatinib = compound: C1CCC(CC1)N(CCNCCC2=C3C(=C(C=C2)O)NC(=O)CO3)C(=O)CCNCCC4=CC(=C(C=C4)Cl)Cl [AZ505] + CS(=O)(=O)CCNCc1ccc(-c2ccc3ncnc(Nc4ccc(OCc5cccc(F)c5)c(Cl)c4)c3c2)o1 [Lapatinib] (partner 2 µM)
Outline: as §1

Dactolisib + Alpelisib = compound: Cn1c(=O)n(-c2ccc(C(C)(C)C#N)cc2)c2c3cc(-c4cnc5ccccc5c4)ccc3ncc21 [Dactolisib] + Cc1nc(NC(=O)N2CCC[C@H]2C(N)=O)sc1-c1ccnc(C(C)(C)C(F)(F)F)c1 [Alpelisib] (partner 2 µM)
Outline: as §1

Cell Line: NCI-H650
- relative viability (Dactolisib + Lapatinib; first compound 0.002 µM): 0.91
- relative viability (Dactolisib + Lapatinib; first compound 0.006325 µM): 1
- relative viability (Dactolisib + Lapatinib; first compound 0.02 µM): 0.691
- relative viability (Dactolisib + Lapatinib; first compound 0.06325 µM): 0.55
- relative viability (Dactolisib + Lapatinib; first compound 0.2 µM): 0.452
- relative viability (AZ505 + Pictilisib; first compound 0.08 µM): 0.69
- relative viability (AZ505 + Pictilisib; first compound 0.253 µM): 1.01
- relative viability (AZ505 + Pictilisib; first compound 0.8 µM): 0.876
- relative viability (AZ505 + Pictilisib; first compound 2.53 µM): 0.86
- relative viability (AZ505 + Pictilisib; first compound 8 µM): 0.885
- relative viability (AZ505 + Lapatinib; first compound 0.08 µM): 0.849
- relative viability (AZ505 + Lapatinib; first compound 0.253 µM): 0.925
- relative viability (AZ505 + Lapatinib; first compound 0.8 µM): 1.18
- relative viability (AZ505 + Lapatinib; first compound 2.53 µM): 1.06
- relative viability (AZ505 + Lapatinib; first compound 8 µM): 1.06
- relative viability (Dactolisib + Alpelisib; first compound 0.002 µM): 1.19
- relative viability (Dactolisib + Alpelisib; first compound 0.006325 µM): 0.964
- relative viability (Dactolisib + Alpelisib; first compound 0.02 µM): 1.01
- relative viability (Dactolisib + Alpelisib; first compound 0.06325 µM): 0.46
- relative viability (Dactolisib + Alpelisib; first compound 0.2 µM): 0.507

Cell Line: NCI-H661
- relative viability (Dactolisib + Lapatinib; first compound 0.002 µM): 0.434
- relative viability (Dactolisib + Lapatinib; first compound 0.006325 µM): 0.475
- relative viability (Dactolisib + Lapatinib; first compound 0.02 µM): 0.414
- relative viability (Dactolisib + Lapatinib; first compound 0.06325 µM): 0.257
- relative viability (Dactolisib + Lapatinib; first compound 0.2 µM): 0.263
- relative viability (AZ505 + Pictilisib; first compound 0.253 µM): 0.357
- relative viability (AZ505 + Pictilisib; first compound 0.8 µM): 0.392
- relative viability (AZ505 + Pictilisib; first compound 2.53 µM): 0.563
- relative viability (AZ505 + Pictilisib; first compound 8 µM): 0.45
- relative viability (AZ505 + Lapatinib; first compound 0.08 µM): 0.468
- relative viability (AZ505 + Lapatinib; first compound 0.253 µM): 0.502
- relative viability (AZ505 + Lapatinib; first compound 0.8 µM): 0.447
- relative viability (AZ505 + Lapatinib; first compound 2.53 µM): 0.477
- relative viability (AZ505 + Lapatinib; first compound 8 µM): 0.499
- relative viability (Dactolisib + Alpelisib; first compound 0.002 µM): 0.823
- relative viability (Dactolisib + Alpelisib; first compound 0.006325 µM): 0.6
- relative viability (Dactolisib + Alpelisib; first compound 0.02 µM): 0.62
- relative viability (Dactolisib + Alpelisib; first compound 0.06325 µM): 0.484
- relative viability (Dactolisib + Alpelisib; first compound 0.2 µM): 0.225

Cell Line: NCI-H1793
- relative viability (Dactolisib + Lapatinib; first compound 0.002 µM): 0.631
- relative viability (Dactolisib + Lapatinib; first compound 0.006325 µM): 0.409
- relative viability (Dactolisib + Lapatinib; first compound 0.02 µM): 0.325
- relative viability (Dactolisib + Lapatinib; first compound 0.06325 µM): 0.195
- relative viability (Dactolisib + Lapatinib; first compound 0.2 µM): 0.242
- relative viability (AZ505 + Pictilisib; first compound 0.08 µM): 0.284
- relative viability (AZ505 + Pictilisib; first compound 0.253 µM): 0.417
- relative viability (AZ505 + Pictilisib; first compound 0.8 µM): 0.426
- relative viability (AZ505 + Pictilisib; first compound 2.53 µM): 0.31
- relative viability (AZ505 + Pictilisib; first compound 8 µM): 0.386
- relative viability (AZ505 + Lapatinib; first compound 0.08 µM): 0.541
- relative viability (AZ505 + Lapatinib; first compound 0.253 µM): 0.524
- relative viability (AZ505 + Lapatinib; first compound 0.8 µM): 1.04
- relative viability (AZ505 + Lapatinib; first compound 2.53 µM): 0.75
- relative viability (AZ505 + Lapatinib; first compound 8 µM): 0.889
- relative viability (Dactolisib + Alpelisib; first compound 0.002 µM): 0.588
- relative viability (Dactolisib + Alpelisib; first compound 0.006325 µM): 0.4
- relative viability (Dactolisib + Alpelisib; first compound 0.02 µM): 0.241
- relative viability (Dactolisib + Alpelisib; first compound 0.06325 µM): 0.21
- relative viability (Dactolisib + Alpelisib; first compound 0.2 µM): 0.157

Cell Line: NCI-H1734
- relative viability (Dactolisib + Lapatinib; first compound 0.002 µM): 1.02
- relative viability (Dactolisib + Lapatinib; first compound 0.006325 µM): 1
- relative viability (Dactolisib + Lapatinib; first compound 0.02 µM): 0.817
- relative viability (Dactolisib + Lapatinib; first compound 0.06325 µM): 0.342
- relative viability (Dactolisib + Lapatinib; first compound 0.2 µM): 0.378
- relative viability (AZ505 + Pictilisib; first compound 0.08 µM): 0.384
- relative viability (AZ505 + Pictilisib; first compound 0.253 µM): 0.407
- relative viability (AZ505 + Pictilisib; first compound 0.8 µM): 0.446
- relative viability (AZ505 + Pictilisib; first compound 2.53 µM): 0.44
- relative viability (AZ505 + Pictilisib; first compound 8 µM): 0.431
- relative viability (AZ505 + Lapatinib; first compound 0.08 µM): 0.991
- relative viability (AZ505 + Lapatinib; first compound 0.253 µM): 1
- relative viability (AZ505 + Lapatinib; first compound 0.8 µM): 1.02
- relative viability (AZ505 + Lapatinib; first compound 2.53 µM): 1.01
- relative viability (AZ505 + Lapatinib; first compound 8 µM): 1
- relative viability (Dactolisib + Alpelisib; first compound 0.002 µM): 0.686
- relative viability (Dactolisib + Alpelisib; first compound 0.006325 µM): 0.582
- relative viability (Dactolisib + Alpelisib; first compound 0.02 µM): 0.586
- relative viability (Dactolisib + Alpelisib; first compound 0.06325 µM): 0.361
- relative viability (Dactolisib + Alpelisib; first compound 0.2 µM): 0.233

Cell Line: LXF-289
- relative viability (Dactolisib + Lapatinib; first compound 0.002 µM): 0.92
- relative viability (Dactolisib + Lapatinib; first compound 0.006325 µM): 0.906
- relative viability (Dactolisib + Lapatinib; first compound 0.02 µM): 0.916
- relative viability (Dactolisib + Lapatinib; first compound 0.06325 µM): 0.884
- relative viability (Dactolisib + Lapatinib; first compound 0.2 µM): 0.731
- relative viability (AZ505 + Pictilisib; first compound 0.08 µM): 0.706
- relative viability (AZ505 + Pictilisib; first compound 0.8 µM): 0.773
- relative viability (AZ505 + Pictilisib; first compound 2.53 µM): 0.731
- relative viability (AZ505 + Pictilisib; first compound 8 µM): 0.818
- relative viability (AZ505 + Lapatinib; first compound 0.08 µM): 0.876
- relative viability (AZ505 + Lapatinib; first compound 0.8 µM): 0.869
- relative viability (AZ505 + Lapatinib; first compound 2.53 µM): 0.857
- relative viability (AZ505 + Lapatinib; first compound 8 µM): 0.869
- relative viability (Dactolisib + Alpelisib; first compound 0.002 µM): 1.12
- relative viability (Dactolisib + Alpelisib; first compound 0.006325 µM): 0.973
- relative viability (Dactolisib + Alpelisib; first compound 0.02 µM): 1.01
- relative viability (Dactolisib + Alpelisib; first compound 0.06325 µM): 0.927
- relative viability (Dactolisib + Alpelisib; first compound 0.2 µM): 0.597

Cell Line: H3255
- relative viability (Dactolisib + Lapatinib; first compound 0.002 µM): 0.329
- relative viability (Dactolisib + Lapatinib; first compound 0.006325 µM): 0.257
- relative viability (Dactolisib + Lapatinib; first compound 0.02 µM): 0.226
- relative viability (Dactolisib + Lapatinib; first compound 0.06325 µM): 0.237
- relative viability (Dactolisib + Lapatinib; first compound 0.2 µM): 0.225
- relative viability (AZ505 + Pictilisib; first compound 0.08 µM): 0.395
- relative viability (AZ505 + Pictilisib; first compound 0.253 µM): 0.39
- relative viability (AZ505 + Pictilisib; first compound 0.8 µM): 0.48
- relative viability (AZ505 + Pictilisib; first compound 2.53 µM): 0.424
- relative viability (AZ505 + Pictilisib; first compound 8 µM): 0.598
- relative viability (AZ505 + Lapatinib; first compound 0.08 µM): 0.249
- relative viability (AZ505 + Lapatinib; first compound 0.253 µM): 0.235
- relative viability (AZ505 + Lapatinib; first compound 0.8 µM): 0.268
- relative viability (AZ505 + Lapatinib; first compound 2.53 µM): 0.283
- relative viability (AZ505 + Lapatinib; first compound 8 µM): 0.247
- relative viability (Dactolisib + Alpelisib; first compound 0.002 µM): 0.767
- relative viability (Dactolisib + Alpelisib; first compound 0.006325 µM): 0.709
- relative viability (Dactolisib + Alpelisib; first compound 0.02 µM): 0.653
- relative viability (Dactolisib + Alpelisib; first compound 0.06325 µM): 0.481
- relative viability (Dactolisib + Alpelisib; first compound 0.2 µM): 0.314

Cell Line: 201T
- relative viability (Dactolisib + Lapatinib; first compound 0.002 µM): 1.07
- relative viability (Dactolisib + Lapatinib; first compound 0.006325 µM): 1.05
- relative viability (Dactolisib + Lapatinib; first compound 0.02 µM): 0.991
- relative viability (Dactolisib + Lapatinib; first compound 0.06325 µM): 0.956
- relative viability (Dactolisib + Lapatinib; first compound 0.2 µM): 0.969
- relative viability (AZ505 + Pictilisib; first compound 0.08 µM): 0.651
- relative viability (AZ505 + Pictilisib; first compound 0.253 µM): 0.678
- relative viability (AZ505 + Pictilisib; first compound 0.8 µM): 0.613
- relative viability (AZ505 + Pictilisib; first compound 2.53 µM): 0.633
- relative viability (AZ505 + Pictilisib; first compound 8 µM): 0.674
- relative viability (AZ505 + Lapatinib; first compound 0.08 µM): 1
- relative viability (AZ505 + Lapatinib; first compound 0.253 µM): 1.04
- relative viability (AZ505 + Lapatinib; first compound 0.8 µM): 0.957
- relative viability (AZ505 + Lapatinib; first compound 2.53 µM): 1.04
- relative viability (AZ505 + Lapatinib; first compound 8 µM): 1.01
- relative viability (Dactolisib + Alpelisib; first compound 0.002 µM): 1.01
- relative viability (Dactolisib + Alpelisib; first compound 0.006325 µM): 0.994
- relative viability (Dactolisib + Alpelisib; first compound 0.02 µM): 0.986
- relative viability (Dactolisib + Alpelisib; first compound 0.06325 µM): 0.98
- relative viability (Dactolisib + Alpelisib; first compound 0.2 µM): 0.688
